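A five-concentration, 48-hour dose response in 96-well plates underlies each endpoint, interpolated linearly between surrounding concentrations. The concentration for 50% growth inhibition is given as GI50.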 The source made the active and inactive calls. No stated cut-off is given here; in the data, active = GI50 up to about 1.1 µM and inactive = higher.
Key:
Test in all cases: NCI-60 cell line screen, 48 h
SK-MEL-28 = system: SK-MEL-28
UACC-62 = system: UACC-62
UACC-257 = system: UACC-257
RXF 393 = system: RXF 393
SK-OV-3 = system: SK-OV-3
HCT-116 = system: HCT-116
RPMI-8226 = system: RPMI-8226
CCRF-CEM = system: CCRF-CEM
HOP-62 = system: HOP-62
Hs-578T = system: Hs-578T
MOLT-4 = system: MOLT-4
SNB-75 = system: SNB-75
HT-29 = system: HT-29
SNB-19 = system: SNB-19
HOP-92 = system: HOP-92
M14 = system: M14
NCI-H522 = system: NCI-H522
SK-MEL-5 = system: SK-MEL-5
HCT-15 = system: HCT-15
Malme-3M = system: Malme-3M
TK-10 = system: TK-10
MDA-MB-231 = system: MDA-MB-231
K562 = system: K562
NCI/ADR-RES = system: NCI/ADR-RES
SW-620 = system: SW-620
MCF7 = system: MCF7
OVCAR-5 = system: OVCAR-5
A549 = system: A549
SR = system: SR
NCI-H23 = system: NCI-H23
ACHN = system: ACHN
T47D = system: T47D
UO-31 = system: UO-31
U-251 = system: U-251
OVCAR-8 = system: OVCAR-8
786-0 = system: 786-0
BT-549 = system: BT-549
IGROV-1 = system: IGROV-1
PC-3 = system: PC-3
COLO 205 = system: COLO 205
KM12 = system: KM12
MDA-MB-435 = system: MDA-MB-435
OVCAR-3 = system: OVCAR-3
A498 = system: A498
SF-539 = system: SF-539
SN12C = system: SN12C
DU-145 = system: DU-145
HCC 2998 = system: HCC 2998
EKVX = system: EKVX
SF-295 = system: SF-295
NCI-H460 = system: NCI-H460
SK-MEL-2 = system: SK-MEL-2
MDA-N = system: MDA-N
SF-268 = system: SF-268
CAKI-1 = system: CAKI-1
LOX IMVI = system: LOX IMVI
HL-60 = system: HL-60
NCI-H226 = system: NCI-H226
OVCAR-4 = system: OVCAR-4

## CC(C)OC(=O)NNc1c(Cl)cc(Cl)cc1Cl
SK-MEL-28
  GI50: > 100 µM (inactive)
UACC-62
  GI50: 56.9 µM (inactive)
UACC-257
  GI50: 33.7 µM (inactive)
RXF 393
  GI50: 26.2 µM (inactive)
SK-OV-3
  GI50: > 100 µM (inactive)
HCT-116
  GI50: 80.9 µM (inactive)
RPMI-8226
  GI50: 43.4 µM (inactive)
CCRF-CEM
  GI50: 53.6 µM (inactive)
HOP-62
  GI50: > 100 µM (inactive)
Hs-578T
  GI50: 58.2 µM (inactive)
MOLT-4
  GI50: 58.7 µM (inactive)
SNB-75
  GI50: 99.5 µM (inactive)
HT-29
  GI50: > 100 µM (inactive)
SNB-19
  GI50: > 100 µM (inactive)
HOP-92
  GI50: 23.2 µM (inactive)
M14
  GI50: 51.5 µM (inactive)
NCI-H522
  GI50: 30.1 µM (inactive)
SK-MEL-5
  GI50: 22.5 µM (inactive)
HCT-15
  GI50: 58.5 µM
Malme-3M
  GI50: 20.4 µM (inactive)
TK-10
  GI50: 37.7 µM (inactive)
MDA-MB-231
  GI50: > 100 µM (inactive)
K562
  GI50: 55.6 µM (inactive)
NCI/ADR-RES
  GI50: 67.9 µM (inactive)
SW-620
  GI50: > 100 µM (inactive)
MCF7
  GI50: 40.3 µM (inactive)
OVCAR-5
  GI50: > 100 µM (inactive)
A549
  GI50: 53 µM (inactive)
SR
  GI50: 55.3 µM (inactive)
NCI-H23
  GI50: > 100 µM (inactive)
ACHN
  GI50: > 100 µM (inactive)
T47D
  GI50: 33.7 µM (inactive)
UO-31
  GI50: 55.8 µM (inactive)
U-251
  GI50: > 100 µM (inactive)
OVCAR-8
  GI50: > 100 µM (inactive)
786-0
  GI50: > 100 µM (inactive)
BT-549
  GI50: 44.4 µM (inactive)
IGROV-1
  GI50: 37.3 µM (inactive)
PC-3
  GI50: 36.9 µM (inactive)
COLO 205
  GI50: 49.1 µM (inactive)
KM12
  GI50: 71.6 µM (inactive)
MDA-MB-435
  GI50: 82.8 µM (inactive)
OVCAR-3
  GI50: 56 µM (inactive)
A498
  GI50: 30.5 µM (inactive)
SF-539
  GI50: > 100 µM (inactive)
SN12C
  GI50: > 100 µM (inactive)
DU-145
  GI50: > 100 µM (inactive)
HCC 2998
  GI50: 89.9 µM (inactive)
EKVX
  GI50: 31.6 µM (inactive)
SF-295
  GI50: 77.6 µM (inactive)
NCI-H460
  GI50: 63.7 µM (inactive)
SK-MEL-2
  GI50: 55.6 µM (inactive)
MDA-N
  GI50: 55 µM (inactive)
SF-268
  GI50: 39.1 µM (inactive)
CAKI-1
  GI50: 58.6 µM (inactive)
LOX IMVI
  GI50: 76.7 µM (inactive)
HL-60
  GI50: 68.9 µM (inactive)

## O=C1CSC2=NC3=C(COC/C3=C\c3ccc(Br)cc3)C(c3ccc(Br)cc3)N12 (stereo not given)
UACC-62
  GI50: > 100 µM (inactive)
UACC-257
  GI50: > 100 µM (inactive)
RXF 393
  GI50: 37.8 µM (inactive)
SK-OV-3
  GI50: > 100 µM (inactive)
NCI-H226
  GI50: > 100 µM (inactive)
HCT-116
  GI50: 40.2 µM (inactive)
OVCAR-4
  GI50: > 100 µM (inactive)
RPMI-8226
  GI50: 20.9 µM (inactive)
CCRF-CEM
  GI50: 17.6 µM (inactive)
HOP-62
  GI50: > 100 µM (inactive)
Hs-578T
  GI50: > 100 µM (inactive)
MOLT-4
  GI50: 15.2 µM (inactive)
SNB-75
  GI50: 70.5 µM (inactive)
SNB-19
  GI50: > 100 µM (inactive)
HOP-92
  GI50: > 100 µM (inactive)
M14
  GI50: 28.8 µM (inactive)
NCI-H522
  GI50: 3.92 µM (inactive)
SK-MEL-5
  GI50: 96.4 µM (inactive)
HCT-15
  GI50: 52.6 µM
TK-10
  GI50: 97.9 µM (inactive)
MDA-MB-231
  GI50: > 100 µM (inactive)
K562
  GI50: 28.9 µM (inactive)
NCI/ADR-RES
  GI50: 31.8 µM (inactive)
SW-620
  GI50: 52.4 µM (inactive)
MCF7
  GI50: 44.4 µM (inactive)
OVCAR-5
  GI50: > 100 µM (inactive)
SR
  GI50: 15.3 µM (inactive)
NCI-H23
  GI50: 90.6 µM (inactive)
ACHN
  GI50: 82.8 µM (inactive)
T47D
  GI50: 53.2 µM (inactive)
UO-31
  GI50: 35.3 µM (inactive)
U-251
  GI50: 66.5 µM (inactive)
OVCAR-8
  GI50: 74.6 µM (inactive)
786-0
  GI50: 83.6 µM (inactive)
BT-549
  GI50: > 100 µM (inactive)
IGROV-1
  GI50: 98.6 µM (inactive)
PC-3
  GI50: 41.8 µM (inactive)
COLO 205
  GI50: 58.7 µM (inactive)
KM12
  GI50: 29.1 µM (inactive)
MDA-MB-435
  GI50: 49 µM (inactive)
OVCAR-3
  GI50: 61 µM (inactive)
A498
  GI50: > 100 µM (inactive)
SF-539
  GI50: > 100 µM (inactive)
SN12C
  GI50: > 100 µM (inactive)
DU-145
  GI50: > 100 µM (inactive)
HCC 2998
  GI50: > 100 µM (inactive)
EKVX
  GI50: > 100 µM (inactive)
SF-295
  GI50: 55.7 µM (inactive)
NCI-H460
  GI50: 51.2 µM (inactive)
SK-MEL-2
  GI50: > 100 µM (inactive)
MDA-N
  GI50: 43 µM (inactive)
SF-268
  GI50: > 100 µM (inactive)
CAKI-1
  GI50: > 100 µM (inactive)
LOX IMVI
  GI50: 53.6 µM (inactive)
HL-60
  GI50: 12.9 µM (inactive)

## O=C(O)C1=NN(c2ccc(S(=O)(=O)O)cc2)C2(C1)C(Cl)C(=O)N2c1nc2ccccc2s1 (stereo not given)
SK-MEL-28
  GI50: 20.2 µM (inactive)
UACC-62
  GI50: 14.4 µM (inactive)
UACC-257
  GI50: 17.2 µM (inactive)
RXF 393
  GI50: 16.1 µM (inactive)
SK-OV-3
  GI50: 15.6 µM (inactive)
NCI-H226
  GI50: 16.5 µM (inactive)
HCT-116
  GI50: 16.5 µM (inactive)
OVCAR-4
  GI50: 16.4 µM (inactive)
RPMI-8226
  GI50: 13.1 µM (inactive)
HOP-62
  GI50: 12.5 µM (inactive)
Hs-578T
  GI50: 47.6 µM (inactive)
MOLT-4
  GI50: 15.3 µM (inactive)
SNB-75
  GI50: 13.5 µM (inactive)
HT-29
  GI50: 17.8 µM (inactive)
SNB-19
  GI50: 21.3 µM (inactive)
HOP-92
  GI50: 20.5 µM (inactive)
M14
  GI50: 15.7 µM (inactive)
NCI-H522
  GI50: 10.7 µM (inactive)
SK-MEL-5
  GI50: 12.8 µM (inactive)
HCT-15
  GI50: 20.6 µM
Malme-3M
  GI50: 20.5 µM (inactive)
TK-10
  GI50: 18 µM (inactive)
MDA-MB-231
  GI50: 19 µM (inactive)
K562
  GI50: 22.1 µM (inactive)
NCI/ADR-RES
  GI50: 23.9 µM (inactive)
SW-620
  GI50: 2.68 µM (inactive)
MCF7
  GI50: 14.4 µM (inactive)
OVCAR-5
  GI50: 17.1 µM (inactive)
A549
  GI50: 16.6 µM (inactive)
SR
  GI50: 7.82 µM (inactive)
NCI-H23
  GI50: 14.4 µM (inactive)
ACHN
  GI50: 17 µM (inactive)
T47D
  GI50: 20.5 µM (inactive)
UO-31
  GI50: 8.3 µM (inactive)
U-251
  GI50: 15.8 µM (inactive)
OVCAR-8
  GI50: 17.6 µM (inactive)
786-0
  GI50: 16.1 µM (inactive)
BT-549
  GI50: 17.4 µM (inactive)
IGROV-1
  GI50: 7.83 µM (inactive)
PC-3
  GI50: 16.6 µM (inactive)
COLO 205
  GI50: 18.6 µM (inactive)
KM12
  GI50: 14.9 µM (inactive)
MDA-MB-435
  GI50: 16.2 µM (inactive)
OVCAR-3
  GI50: 12.8 µM (inactive)
A498
  GI50: 19.1 µM (inactive)
SF-539
  GI50: 4.4 µM (inactive)
SN12C
  GI50: 17.8 µM (inactive)
DU-145
  GI50: 19.1 µM (inactive)
HCC 2998
  GI50: 18.8 µM (inactive)
EKVX
  GI50: 16 µM (inactive)
SF-295
  GI50: 15.6 µM (inactive)
NCI-H460
  GI50: 16 µM (inactive)
SK-MEL-2
  GI50: 15.6 µM (inactive)
MDA-N
  GI50: 21.4 µM (inactive)
SF-268
  GI50: 17.9 µM (inactive)
CAKI-1
  GI50: 15.4 µM (inactive)
LOX IMVI
  GI50: 2.99 µM (inactive)
HL-60
  GI50: 16.2 µM (inactive)

— ChEMBL document CHEMBL1201862, “PubChem BioAssay data set” (2004)
